Structures are written as SMILES.

Here are results for 11 molecules from patent US20260125382A1, “COMPOUNDS FOR INHIBITING OR DEGRADING CDK2 AND/OR CDK9 AND MEDICINAL USE THEREOF” (KOREA RESEARCH INSTITUTE OF CHEMICAL TECHNOLOGY, priority 2022, published 2026).

The target of one assay is T1, CDK2 (Homo sapiens, UniProt P24941).
T1 construct: endogenous in cells; host or cells: MDA-MB-231
Description: CDK protein degradation activity (Western blotting), CDK2. It is filed as cell-based. The note with it: MDA-MB-231 cells, 16 hours, Western blot. An outline of the steps: (§1)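 MDA-MB-231 cells treated 16 h with compound at 100 nM, 1 μM or 10 μM, with DMSO as control. Lysates run on SDS-PAGE and immunoblotted for CDK2, CDK9 and tubulin; band levels quantified by densitometry.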
In general terms: Immunoblotting shows a protein as a band on a membrane.

The target in another assay is T2, CDK9 (Homo sapiens, UniProt P50750).
T2 construct: endogenous in cells; host or cells: MDA-MB-231
Nature of the assay: CDK protein degradation activity (Western blotting), CDK9. The conditions noted are these: MDA-MB-231 cells, 16 hours, Western blot. It is filed as cell-based. The procedure, abridged: as §1

T2 sequence (P50750 whole entry): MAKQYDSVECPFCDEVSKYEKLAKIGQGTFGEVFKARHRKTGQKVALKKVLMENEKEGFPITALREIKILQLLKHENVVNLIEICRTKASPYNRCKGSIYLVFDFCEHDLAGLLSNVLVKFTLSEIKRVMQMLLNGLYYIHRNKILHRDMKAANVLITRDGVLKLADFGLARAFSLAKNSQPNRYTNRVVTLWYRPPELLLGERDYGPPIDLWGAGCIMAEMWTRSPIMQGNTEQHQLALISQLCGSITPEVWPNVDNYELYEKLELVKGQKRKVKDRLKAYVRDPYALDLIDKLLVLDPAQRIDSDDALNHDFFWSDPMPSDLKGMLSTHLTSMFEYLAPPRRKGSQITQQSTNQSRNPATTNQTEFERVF

Consider `O=C1CC[C@H](N2C(=O)c3ccc(N4CCC(C(=O)N5CCC(CN6CCN(c7ccc(Nc8ncnc9c8ncn9C8CC(NC(=O)c9cccc(F)n9)C8)cc7)CC6)CC5)CC4)cc3C2=O)C(=O)N1` (stereo partly drawn) [Compound 467, N-((1s,3s)-3-(6-((4-(4-((1-(1-(2-(2,6-dioxopiperidin-3-yl)-1,3-dioxoisoindolin-5-yl)piperidin-4-carbonyl)piperidin-4-yl)methyl)piperazin-1-yl)phenyl)amino)-9H-purin-9-yl)cyclobutyl)-6-fluoropicolinamide], for which, on CDK2, the “Enzyme degradation CDK2 (% remaining) @ 0.1 μM” value was found to be 40%, the “Enzyme degradation CDK2 (% remaining) @ 1 μM” value was 30% and the “Enzyme degradation CDK2 (% remaining) @ 10 μM” value amounted to 30%. At CDK9, the “Enzyme degradation CDK9 (% remaining) @ 0.1 μM” value is 0/0/0%, the “Enzyme degradation CDK9 (% remaining) @ 1 μM” value is 0/0/0% and the “Enzyme degradation CDK9 (% remaining) @ 10 μM” value is given as 0/0/0%.

As to `Cc1cccc(C(=O)N[C@H]2C[C@@H](n3cnc4c(NCc5cccc(OCC6CCN(C(=O)COc7ccc8c(c7)C(=O)N([C@H]7CCC(=O)NC7=O)C8=O)CC6)c5)ncnc43)C2)n1` [Compound 94, N-((1s,3s)-3-(6-((3-((1-(2-((2-(2,6-dioxopiperidin-3-yl)-1,3-dioxoisoindolin-5-yl)oxy)acetyl)piperidin-4-yl)methoxy)benzyl)amino)-9H-purin-9-yl)cyclobutyl)-6-methylpicolinamide], at CDK2, the “Enzyme degradation CDK2 (% remaining) @ 0.1 μM” value is 80%, the “Enzyme degradation CDK2 (% remaining) @ 1 μM” value was 60% and the “Enzyme degradation CDK2 (% remaining) @ 10 μM” value amounted to 90%. Besides, on CDK9, the “Enzyme degradation CDK9 (% remaining) @ 0.1 μM” value is 50%, the “Enzyme degradation CDK9 (% remaining) @ 1 μM” value was 10% and the “Enzyme degradation CDK9 (% remaining) @ 10 μM” value amounted to 20%.

`Cc1cccc(C(=O)NC2CC(n3cnc4c(NCc5ccc(N6CCN(CC7CCN(C(=O)CNc8ccc9c(c8)C(=O)N([C@H]8CCC(=O)NC8=O)C9=O)CC7)CC6)cc5)ncnc43)C2)n1` (stereo partly drawn) [Compound 153, N-((1s,3s)-3-(6-((4-(4-((1-((2-(2,6-dioxopiperidin-3-yl)-1,3-dioxoisoindolin-5-yl)glycyl)piperidin-4-yl)methyl)piperazin-1-yl)benzyl)amino)-9H-purin-9-yl)cyclobutyl)-6-methylpicolinamide]: at CDK2, the “Enzyme degradation CDK2 (% remaining) @ 0.1 μM” value was 10/10/10%, the “Enzyme degradation CDK2 (% remaining) @ 1 μM” value is 10/10/10% and the “Enzyme degradation CDK2 (% remaining) @ 10 μM” value was 10/10/10%. For the same molecule, at CDK9, the “Enzyme degradation CDK9 (% remaining) @ 0.1 μM” value is 0/0/0%, the “Enzyme degradation CDK9 (% remaining) @ 1 μM” value is 0/0/0% and the “Enzyme degradation CDK9 (% remaining) @ 10 μM” value is 0/0/0%.

In the case of `Cc1cccc(C(=O)N[C@H]2C[C@@H](n3cnc4c(NCc5cccc(OCCCN6CCN(C(=O)COc7cccc8c7C(=O)N([C@H]7CCC(=O)NC7=O)C8=O)CC6)c5)ncnc43)C2)n1` [Compound 101, N-((1s,3s)-3-(6-((3-(3-(4-(2-((2-(2,6-dioxopiperidin-3-yl)-1,3-dioxoisoindolin-4-yl)oxy)acetyl)piperazin-1-yl)propoxy)benzyl)amino)-9H-purin-9-yl)cyclobutyl)-6-methylpicolinamide], on CDK2, the “Enzyme degradation CDK2 (% remaining) @ 0.1 μM” value was 70%, the “Enzyme degradation CDK2 (% remaining) @ 1 μM” value is 50% and the “Enzyme degradation CDK2 (% remaining) @ 10 μM” value amounted to 40%. At CDK9, the “Enzyme degradation CDK9 (% remaining) @ 0.1 μM” value was found to be 80%, the “Enzyme degradation CDK9 (% remaining) @ 1 μM” value worked out at 30% and the “Enzyme degradation CDK9 (% remaining) @ 10 μM” value is reported as 30%.

With `Cc1cccc(C(=O)N[C@H]2C[C@@H](n3cnc4c(NCc5ccc(OCC6CCN(C(=O)CNc7ccc8c(c7)C(=O)N([C@H]7CCC(=O)NC7=O)C8=O)CC6)cc5)ncnc43)C2)n1` [Compound 108, N-((1s,3s)-3-(6-((4-((1-((2-(2,6-dioxopiperidin-3-yl)-1,3-dioxoisoindolin-5-yl)glycyl)piperidin-4-yl)methoxy)benzyl)amino)-9H-purin-9-yl)cyclobutyl)-6-methylpicolinamide], on CDK2, the “Enzyme degradation CDK2 (% remaining) @ 0.1 μM” value was determined as 30%, the “Enzyme degradation CDK2 (% remaining) @ 1 μM” value is on record as 30% and the “Enzyme degradation CDK2 (% remaining) @ 10 μM” value worked out at 60%. Moreover, at CDK9, the “Enzyme degradation CDK9 (% remaining) @ 0.1 μM” value was 0/0/0%, the “Enzyme degradation CDK9 (% remaining) @ 1 μM” value was 0/0/0% and the “Enzyme degradation CDK9 (% remaining) @ 10 μM” value was 0/0/0%.

For `Cc1cccc(C(=O)N[C@H]2C[C@@H](n3cnc4c(Nc5ccc(N6CCN(CCC7CCN(C(=O)C8CCN(c9ccc%10c(c9)C(=O)N([C@H]9CCC(=O)NC9=O)C%10=O)CC8)CC7)CC6)cc5)ncnc43)C2)n1` [Compound 389, N-((1s,3s)-3-(6-((4-(4-(2-(1-(1-(2-(2,6-dioxopiperidin-3-yl)-1,3-dioxoisoindolin-5-yl)piperidin-4-carbonyl)piperidin-4-yl)ethyl)piperazin-1-yl)phenyl)amino)-9H-purin-9-yl)cyclobutyl)-6-methylpicolinamide], on CDK2, the “Enzyme degradation CDK2 (% remaining) @ 0.1 μM” value is 40%, the “Enzyme degradation CDK2 (% remaining) @ 1 μM” value was 30% and the “Enzyme degradation CDK2 (% remaining) @ 10 μM” value is given as 30%. Further, at CDK9, the “Enzyme degradation CDK9 (% remaining) @ 0.1 μM” value is 0/0/0%, the “Enzyme degradation CDK9 (% remaining) @ 1 μM” value is 0/0/0% and the “Enzyme degradation CDK9 (% remaining) @ 10 μM” value is 0/0/0%.

As to `O=C1CC[C@H](N2C(=O)c3ccc(N4CCC(C(=O)N5CCC(N6CCN(c7ccc(Nc8ncnc9c8ncn9[C@H]8C[C@@H](NC(=O)Cc9ccccc9)C8)cc7)CC6)CC5)CC4)cc3C2=O)C(=O)N1` [Compound 343, N-((1s,3s)-3-(6-((4-(4-(1-(1-(2-(2,6-dioxopiperidin-3-yl)-1,3-dioxoisoindolin-5-yl)piperidin-4-carbonyl)piperidin-4-yl)piperazin-1-yl)phenyl)amino)-9H-purin-9-yl)cyclobutyl)-2-phenylacetamide], at CDK2, the “Enzyme degradation CDK2 (% remaining) @ 0.1 μM” value amounted to 30%, the “Enzyme degradation CDK2 (% remaining) @ 1 μM” value is on record as 30% and the “Enzyme degradation CDK2 (% remaining) @ 10 μM” value is 40%. Moreover, on CDK9, the “Enzyme degradation CDK9 (% remaining) @ 0.1 μM” value is reported as 10%, the “Enzyme degradation CDK9 (% remaining) @ 1 μM” value was found to be 0% and the “Enzyme degradation CDK9 (% remaining) @ 10 μM” value came to 0%.

As to `Cc1cccc(C(=O)N[C@H]2C[C@@H](n3cnc4c(NCc5cccc(N6CCN(CC7CCN(c8ccc9c(c8)C(=O)N([C@H]8CCC(=O)NC8=O)C9=O)CC7)CC6)c5)ncnc43)C2)n1` [Compound 137, N-((1s,3s)-3-(6-((3-(4-((1-(2-(2,6-dioxopiperidin-3-yl)-1,3-dioxoisoindolin-5-yl)piperidin-4-yl)methyl)piperazin-1-yl)benzyl)amino)-9H-purin-9-yl)cyclobutyl)-6-methylpicolinamide], on CDK2, the “Enzyme degradation CDK2 (% remaining) @ 0.1 μM” value was 30%, the “Enzyme degradation CDK2 (% remaining) @ 1 μM” value is listed as 40% and the “Enzyme degradation CDK2 (% remaining) @ 10 μM” value stood at 40%. Moreover, at CDK9, the “Enzyme degradation CDK9 (% remaining) @ 0.1 μM” value was 0/0/0%, the “Enzyme degradation CDK9 (% remaining) @ 1 μM” value was 0/0/0% and the “Enzyme degradation CDK9 (% remaining) @ 10 μM” value is listed as 0/0/0%.

Consider `Cc1cccc(C(=O)NC2CC(n3cnc4c(Nc5ccc(N6CCN(C(=O)COc7cccc8c7C(=O)N([C@H]7CCC(=O)NC7=O)C8=O)CC6)cc5)ncnc43)C2)n1` (stereo partly drawn) [Compound 85, N-((1s,3s)-3-(6-((4-(4-(2-((2-(2,6-dioxopiperidin-3-yl)-1,3-dioxoisoindolin-4-yl)oxy)acetyl)piperazin-1-yl)phenyl)amino)-9H-purin-9-yl)cyclobutyl)-6-methylpicolinamide], for which, on CDK2, the “Enzyme degradation CDK2 (% remaining) @ 0.1 μM” value came out at 70%, the “Enzyme degradation CDK2 (% remaining) @ 1 μM” value stood at 60% and the “Enzyme degradation CDK2 (% remaining) @ 10 μM” value worked out at 50%. Further, on CDK9, the “Enzyme degradation CDK9 (% remaining) @ 0.1 μM” value turned out to be 60%, the “Enzyme degradation CDK9 (% remaining) @ 1 μM” value came to 40% and the “Enzyme degradation CDK9 (% remaining) @ 10 μM” value turned out to be 30%.

On to `O=C1CC[C@H](N2C(=O)c3cccc(CCCCN4CCC(CN5CCN(c6ccc(Nc7ncnc8c7ncn8[C@H]7C[C@@H](NC(=O)c8cccc(C(F)(F)F)n8)C7)cc6)CC5)CC4)c3C2=O)C(=O)N1` [Compound 427, N-((1s,3s)-3-(6-((4-(4-((1-(4-(2-(2,6-dioxopiperidin-3-yl)-1,3-dioxoisoindolin-4-yl)butyl)piperidin-4-yl)methyl)piperazin-1-yl)phenyl)amino)-9H-purin-9-yl)cyclobutyl)-6-(trifluoromethyl)picolinamide], for which, on CDK2, the “Enzyme degradation CDK2 (% remaining) @ 0.1 μM” value was 20/20/20%, the “Enzyme degradation CDK2 (% remaining) @ 1 μM” value is listed as 20/20/20% and the “Enzyme degradation CDK2 (% remaining) @ 10 μM” value is given as 20/20/20%. For the same molecule, at CDK9, the “Enzyme degradation CDK9 (% remaining) @ 0.1 μM” value turned out to be 0%, the “Enzyme degradation CDK9 (% remaining) @ 1 μM” value worked out at 0% and the “Enzyme degradation CDK9 (% remaining) @ 10 μM” value was 20%.

Take `Cc1cccc(C(=O)N[C@H]2C[C@@H](n3cnc4c(NC5CCN(CC6CCN(C(=O)CNc7ccc8c(c7)C(=O)N([C@H]7CCC(=O)NC7=O)C8=O)CC6)CC5)ncnc43)C2)n1` [Compound 25, N-((1s,3s)-3-(6-((1-((1-((2-(2,6-dioxopiperidin-3-yl)-1,3-dioxoisoindolin-5-yl)glycyl)piperidin-4-yl)methyl)piperidin-4-yl)amino)-9H-purin-9-yl)cyclobutyl)-6-methylpicolinamide]: on CDK2, the “Enzyme degradation CDK2 (% remaining) @ 0.1 μM” value was found to be 20%, the “Enzyme degradation CDK2 (% remaining) @ 1 μM” value was found to be 20% and the “Enzyme degradation CDK2 (% remaining) @ 10 μM” value came to 30%. In addition, on CDK9, the “Enzyme degradation CDK9 (% remaining) @ 0.1 μM” value was 0/0/0%, the “Enzyme degradation CDK9 (% remaining) @ 1 μM” value was 0/0/0% and the “Enzyme degradation CDK9 (% remaining) @ 10 μM” value is given as 0/0/0%.
